Reference: US20110223642A1, “METHOD FOR INHIBITING BACTERIA GROWTH DURING ETHANOL FERMENTATION” (priority 2010, published 2011)

System: gram positive bacteria
Test: Inhibition of gram positive bacteria growth in corn mash media
Type: cell-based
Conditions: typical corn mash media
Method: If added just to a propagator the isopellets should be diluted down to 2 to 20 ppm in a fermenter. The hop acids employed are not limited to isomerized hop acids but can also be stabilized unisomerized hop pellets. The stabilized hop pellet, can be isomerized into isoalpha acids once placed into 70° C. or hotter hot water for thirty or more minutes. Once this isomerization is completed the mixture can be added to the yeast propagator or fermenter. The unexpected results include reduced levels of isoalpha acid required to inhibit gram positive bacteria growth, better antibacterial protection toward the end of fermentation, and increased yeast alcohol tolerance. Typically about 15 ppm of isoalpha acid is required to inhibit most gram positive bacteria growth in a typical corn mash media; however, we discovered that isomerized hop pellets made in accordance with the present invention can inhibit bacteria growth at an isoalpha acid dosage of about 12 ppm. While not wishing to be bound by theory, it is believed iso-pellets made in accordance with the present invention also contain beta acids, which are very effective at inhibiting gram positive bacteria growth. Unfortunately beta acids ordinarily are not soluble in corn mash or cereal fermentations, and thus their antibacterial effect is worthless. […]

isoalpha acid
isoalpha acid dosage required to inhibit gram positive bacteria growth: about 15 ppm
